In paper PMC5330453, “Synthesis and biological evaluation of dihydropyrano-[2,3-c]pyrazoles as a new class of PPARγ partial agonists” (PLoS ONE, 2017):
Several values for one entry are separate records, joined by “and”; a condition that tells them apart may be missing. Identical values can stand only once. Like-named read-outs stand apart in the source and are kept apart here.

Columns and labels:
[1] = molecular target: T1, hPPARγ LBD (Homo sapiens, UniProt P37231); test: TR-FRET competitive binding assay (LanthaScreen), displacement of a fluorescent pan PPAR agonist tracer; conditions: GST-tagged PPARγ-LBD, 10 concentrations 3 nM to 500 μM, triplicate
T1 sequence (P37231 238-503 limits assumed): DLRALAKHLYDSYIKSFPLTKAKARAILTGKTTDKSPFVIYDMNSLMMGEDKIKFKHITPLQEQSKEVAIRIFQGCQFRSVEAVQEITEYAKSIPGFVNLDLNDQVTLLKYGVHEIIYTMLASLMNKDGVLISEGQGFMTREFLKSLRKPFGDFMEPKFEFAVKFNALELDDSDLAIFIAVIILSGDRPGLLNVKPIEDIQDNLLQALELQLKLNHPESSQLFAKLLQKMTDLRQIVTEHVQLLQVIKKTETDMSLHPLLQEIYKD
Method: IC50 values for respective compounds were determined by competitive binding using time-resolved fluorescence resonance energy transfer (LanthaScreen, Invitrogen) on a Victor2 microplate reader (PerkinElmer). Briefly, a terbium labeled anti-GST antibody was used to label purified GST-tagged PPARγ-LBD (ligand binding domain). Energy transfer from terbium to the tracer, a fluorescent pan PPAR agonist, enabled read-out of each test compounds’s ability to displace the tracer. RFU values from dose-response curves (triplicate sampling) for test compounds as well as positive controls (rosiglitazone) were then analyzed using GraphPad Prism [33]. An unrestrained sigmoidal (one-binding site) dose-response curve was fitted to each data set by linear regression and allowing for determination of IC50 values.

[2] = molecular target: T1, hPPARγ LBD; test: Nuclear receptor-LBD transactivation (Gal4-LBD luciferase reporter) in mouse embryo fibroblasts; format: cell-based; parameters: expressed in transfected cells; host or cells: mouse embryo fibroblasts (MEFs); conditions: for induction of transcriptional activation (in words): cell based transactivation assay; for transactivation selectivity towards all three PPAR subtypes: compared with PPARα and PPARδ transactivation
Excerpt: Mouse embryo fibroblasts (MEFs) were propagated in Dulbeccos Modified Eagle’s Media (DMEM) supplemented with 10% FCS and antibiotics.
Cells (Hepa 1–6 were used for PPARα whereas MEFs were used for PPARγ, PPARδ and RXRα transfections) were transfected in solution by Metafectene (Biontex) lipofection, essentially according to the manufacturer’s instructions and seeded in media (MEM or DMEM supplemented with 10% fetal calf serum and antibiotics in 96-well dishes at 24000 cells/cm^2. The transfection plasmid mix included the Gal4-responsive luciferase reporter, the expression vector for the fusion between the Gal4 DNA-binding domain and the nuclear receptor ligand binding domains, and a CMV-Renilla luciferase normalization vector (pRL-CMV, Promega). Six hours after addition of transfection mix to the cells, the media was changed to media (MEM or DMEM) supplemented with vehicle (0.1% DMSO), positive control (1 μM Rosiglitazone, 30 nM GW7647, 1 μM L165041 or 0.2 μM LG1069 for PPARγ, PPARα, PPARδ and RXRα, respectively), or compound. Approx. 18 hours later, cells were harvested and lysates analyzed for Photinus and Renilla luciferase activity by luminometry. All data points were performed in at least triplicate and each sample measured in duplicate. Luminometer raw data was analyzed in Microsoft Excel spreadsheets and presented as column graphs depicting average values of triplicates and including standard deviations.

[3] = tested on: adipocyte differentiation; parameters: method as in PMID 23432662; conditions: earlier study; cited from earlier work
[4] = tested on: PPARγ; parameters: method as in PMID 23432662; conditions: earlier study; read-out: inhibitor activity IC50; cited from earlier work
[5] = hPPARγ LBD ligand displacement IC50, TR-FRET
[6] = read-out: hPPARγ LBD ligand displacement IC50, TR-FRET

| Compound | IC50 [1, 5] | further results |
| --- | --- | --- |
| Cc1ccccc1C1C(C#N)=C(N)Oc2[nH]nc(Cc3ccccc3)c21 (centres unmarked) [10b, 6-Amino-3-benzyl-5(o-tolyl)-1,4-dihydropyrano[2,3-c]pyrazole-5-carbonitrile] | 15.7 µM | induction of transcriptional activation (in words) [2]: did not induce transcriptional activation |
| CCCc1n[nH]c2c1C(c1ccc(C)cc1C)C(C#N)=C(N)O2 (centres unmarked) [10m, 6-Amino-4-(2,4-dimethylphenyl)-3-propyl-1,4-dihydropyrano[2,3-c]pyrazole-5-carbonitrile] | 14 µM | – |
| CCCc1n[nH]c2c1C(c1ccc(Cl)cc1)C(C#N)=C(N)O2 (centres unmarked) [10n, 6-Amino-4-(4-chlorophenyl)-3-propyl-1,4-dihydropyrano[2,3-c]pyrazole-5-carbonitrile] | 31 µM | – |
| Cc1ccc(C2C(C#N)=C(N)Oc3[nH]nc(C)c32)c(C)c1 (centres unmarked) [10aa, 6-Amino-4-(2,4-dimethylphenyl)-3-methyl-1,4-dihydropyrano[2,3-c]pyrazole-5-carbonitrile] | 407 µM and > 100 µM | – |
| Cc1ccc(C2C(C#N)=C(N)Oc3[nH]nc(Cc4ccccc4)c32)c(C)c1 (centres unmarked) [10c, 6-Amino-3-benzyl-4-(2,4-dimethylphenyl)-1,4-dihydropyrano[2,3-c]pyrazole-5-carbonitrile] | 104 µM and > 100 µM | – |
| Cc1cc(C)c([C@@H]2C(C#N)=C(N)Oc3n[nH]c(C)c32)cc1COc1ccc(Cl)cc1C (stereo in doubt) [compound 4] | 32 µM | induction of adipocyte differentiation [3]: relatively poor induction of adipocyte differentiation; IC50 [4]: 30 µM |
| Cc1nn(-c2ccccc2)c2c1C(c1ccc(Cl)cc1Cl)C(C#N)=C(N)O2 (centres unmarked) [10f] | – | induction of transcriptional activation (in words) [2]: did not induce transcriptional activation |
| Cc1ccccc1C1C(C#N)=C(N)Oc2c1c(C)nn2-c1ccc(Cl)cc1 (centres unmarked) [10af] | – | IC50 [1, 6]: ≤ 1 µM; transactivation selectivity towards all three PPAR subtypes [2]: selective against PPARγ |
| Cc1ccc(C2C(C#N)=C(N)Oc3[nH]nc(-c4ccccc4)c32)c(C)c1 (centres unmarked) [10i, 6-Amino-4-(2,4-dimethylphenyl)-3-phenyl-1,4-dihydropyrano[2,3-c]pyrazole-5-carbonitrile] | 75 µM | – |
| Cc1ccc(C)c(C2C(C#N)=C(N)Oc3[nH]nc(-c4ccccc4)c32)c1 (centres unmarked) [10g] | – | IC50 [1, 6]: > 100 µM |
| COc1ccc(C2C(C#N)=C(N)Oc3[nH]nc(C)c32)c(C)c1C (centres unmarked) [10y, 6-Amino-4-(4-methoxy-2,3-dimethylphenyl)-3-methyl-1,4-dihydropyrano[2,3-c]pyrazole-5-carbonitrile] | 87 µM | – |

More lines, main results first:

| IC50 [1, 5] | Compound | further results |
| --- | --- | --- |
| 91 µM | CCCc1n[nH]c2c1C(c1cc(C)ccc1C)C(C#N)=C(N)O2 (centres unmarked) [10p, 6-Amino-4-(2,5-dimethylphenyl)-3-propyl-1,4-dihydropyrano[2,3-c]pyrazole-5-carbonitrile] | – |
| 215 µM and > 100 µM | Cc1nn(-c2ccccc2)c2c1C(c1ccccc1)C(C#N)=C(N)O2 (centres unmarked) [10ad, 6-Amino-3-methyl-1,4-diphenyl-1,4-dihydropyrano[2,3-c]pyrazole-5-carbonitrile] | – |
| 14 µM | Cc1cc(C)c(C2C(C#N)=C(N)Oc3[nH]nc(C)c32)cc1COc1ccc(Cl)c2cccnc12 (centres unmarked) [10s, 6-Amino-4-(5-(((5-chloroquinolin-8-yl)oxy)methyl)-2,4-dimethylphenyl)-3-methyl-1,4-dihydropyrano[2,3-c]pyrazole-5-carbonitrile] | – |
| 0.52 µM and ≤ 1 µM | Cc1ccc(C)c(C2C(C#N)=C(N)Oc3c2c(C)nn3-c2ccc(Cl)cc2)c1 (centres unmarked) [10ae, 6-Amino-1-(4-chlorophenyl)-4-(2,5-dimethylphenyl)-3-methyl-1,4-dihydropyrano[2,3-c]pyrazole-5-carbonitrile] | transactivation selectivity towards all three PPAR subtypes [2]: selective against PPARγ |
| 59 µM | Cc1n[nH]c2c1C(c1ccc(Cl)cc1Cl)C(C#N)=C(N)O2 (centres unmarked) [10x, 6-Amino-4-(2,4-dichlorophenyl)-3-methyl-1,4-dihydropyrano[2,3-c]pyrazole-5-carbonitrile] | – |
| 173 µM and > 100 µM | N#CC1=C(N)Oc2[nH]nc(-c3ccccc3)c2C1c1ccccc1 (centres unmarked) [10h, 6-Amino-3,4-diphenyl-1,4-dihydropyrano[2,3-c]pyrazole-5-carbonitrile] | – |
| 14 µM | Cc1nn(-c2ccccc2)c2c1C(c1ccc(Cl)cc1Cl)C(C#N)=C(N)O2 (centres unmarked) [10ag, 6-Amino-4-(2,4-dichlorophenyl)-3-methyl-1-phenyl-1,4-dihydropyrano[2,3-c]pyrazole-5-carbonitrile] | – |
